# Experimental data from ChEMBL document CHEMBL1201862, “PubChem BioAssay data set” (2004).
# Active and inactive are the calls of the source.
# Legend:
# [1] = Luminescent dose response cell-based high throughput screening assay for inhibitors of the Janus kinase 2 mutant JAK2V617F. [Related pubchem assays: 1446 (Primary screen.), 1521 (Confirmation assay.), 1486 (Counter screen.)]; format: functional
# [2] = microbe, parasite or virus in culture; format: functional; conditions: Mycobacterium tuberculosis
# [3] = growth suppression of PTEN-null colon cells, dose response, cell-based, HCT116 PTEN knockout (AID 1047); format: functional;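 also: HCT116 colon tumor cells with PTEN knocked out; cells exposed to compound for 60 hours before readout; potency for loss of cell viability measured by luminescence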
# [4] = growth suppression of beta-catenin-knockout colon cells, dose response, cell-based, HCT116, human colon tumor (AID 1045); format: functional;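 also: HCT116 colon tumor cells with beta catenin knocked out; cells exposed to compound for 60 hours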
# [5] = biological target: T1, Replicative DNA helicase DnaB (Mycobacterium tuberculosis, UniProt P9WMR3); experiment: DnaB intein splicing inhibitors, dose response, biochemical, cell-free fluorescence (AID 449749); format: functional
# T1 sequence (P9WMR3 whole entry): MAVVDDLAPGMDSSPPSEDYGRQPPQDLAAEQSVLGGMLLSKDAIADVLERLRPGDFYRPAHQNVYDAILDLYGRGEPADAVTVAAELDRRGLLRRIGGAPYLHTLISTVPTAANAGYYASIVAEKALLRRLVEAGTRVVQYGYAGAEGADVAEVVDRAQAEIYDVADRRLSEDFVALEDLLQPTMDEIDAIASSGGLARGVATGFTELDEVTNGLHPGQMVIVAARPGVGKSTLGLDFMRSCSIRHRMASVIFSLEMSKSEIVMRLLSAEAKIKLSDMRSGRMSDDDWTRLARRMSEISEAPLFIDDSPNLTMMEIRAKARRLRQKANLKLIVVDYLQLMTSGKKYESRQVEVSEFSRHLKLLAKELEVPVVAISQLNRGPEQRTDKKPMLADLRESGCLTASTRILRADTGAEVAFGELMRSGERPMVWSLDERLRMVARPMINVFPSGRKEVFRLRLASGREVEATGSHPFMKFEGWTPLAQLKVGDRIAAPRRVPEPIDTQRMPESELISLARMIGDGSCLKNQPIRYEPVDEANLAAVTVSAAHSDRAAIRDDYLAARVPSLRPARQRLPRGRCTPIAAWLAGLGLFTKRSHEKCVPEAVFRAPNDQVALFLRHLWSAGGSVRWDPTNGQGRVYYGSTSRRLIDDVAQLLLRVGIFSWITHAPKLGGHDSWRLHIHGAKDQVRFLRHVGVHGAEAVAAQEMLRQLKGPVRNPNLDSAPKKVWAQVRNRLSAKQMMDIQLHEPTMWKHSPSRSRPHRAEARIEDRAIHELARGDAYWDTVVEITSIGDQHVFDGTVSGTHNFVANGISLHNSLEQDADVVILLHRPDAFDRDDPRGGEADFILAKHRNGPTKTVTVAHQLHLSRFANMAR
# Protein RecA = biological target: T2, Protein RecA (Mycobacterium tuberculosis, UniProt P9WHJ3); experiment: Fluorescence Cell-Free Homogeneous Dose Retest to Identify Inhibitors of RecA-Intein Splicing Activity. [Related pubchem assays (depositor defined):AID2097, AID2223, AID489010, AID492950]; format: functional
# T2 sequence (P9WHJ3 whole entry): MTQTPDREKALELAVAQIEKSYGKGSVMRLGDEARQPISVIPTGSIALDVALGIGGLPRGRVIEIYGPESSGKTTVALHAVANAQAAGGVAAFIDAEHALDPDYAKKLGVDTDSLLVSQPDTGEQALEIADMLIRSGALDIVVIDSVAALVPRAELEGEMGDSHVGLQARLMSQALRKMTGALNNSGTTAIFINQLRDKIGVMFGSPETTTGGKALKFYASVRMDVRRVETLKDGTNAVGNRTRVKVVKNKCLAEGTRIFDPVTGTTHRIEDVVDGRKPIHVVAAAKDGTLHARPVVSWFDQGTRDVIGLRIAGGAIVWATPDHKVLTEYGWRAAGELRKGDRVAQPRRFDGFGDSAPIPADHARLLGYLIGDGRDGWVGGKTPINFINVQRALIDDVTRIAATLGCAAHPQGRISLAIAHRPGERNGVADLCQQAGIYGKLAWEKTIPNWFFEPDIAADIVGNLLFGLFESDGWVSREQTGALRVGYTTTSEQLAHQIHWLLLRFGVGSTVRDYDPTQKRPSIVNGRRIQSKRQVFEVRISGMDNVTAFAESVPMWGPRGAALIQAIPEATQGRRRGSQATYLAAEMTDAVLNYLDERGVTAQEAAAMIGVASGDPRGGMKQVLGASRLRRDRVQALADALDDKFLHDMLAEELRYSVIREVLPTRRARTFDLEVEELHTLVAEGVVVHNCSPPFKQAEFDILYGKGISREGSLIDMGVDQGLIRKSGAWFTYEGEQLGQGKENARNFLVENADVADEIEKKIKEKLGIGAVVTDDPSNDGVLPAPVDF
# [6] = miR-122 activators in hepatoma reporter cells, dose response, cell-based, Huh7 psiCHECK-miR122, Renilla luciferase, cherry-picked (AID 651956); format: functional;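 also: huh7 hepatoma cells stably carrying a psiCHECK-2 miR-122 sensor plasmid; renilla luciferase signal reporting endogenous miR-122 activity after 48 h compound exposure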
# [7] = HEK293T cytotoxicity, dose response, cytotoxicity control for miR-122 modulator project, cell-based, inhibitor set, cherry-pick, set 2 (AID 720697); format: functional
# [8] = HEK293T cytotoxicity, dose response, cytotoxicity control for miR-122 modulator project, cell-based, activator set, cherry-pick (AID 720690); format: functional;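 also: HEK293T human cells scored for general mammalian cytotoxicity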
# Cytochrome P450 1A2 = biological target: T3, Cytochrome P450 1A2 (Homo sapiens, UniProt P05177);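 also: PubChem cytochrome P450 panel assay, CYP1A2 panel member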
# T3 sequence (P05177 whole entry): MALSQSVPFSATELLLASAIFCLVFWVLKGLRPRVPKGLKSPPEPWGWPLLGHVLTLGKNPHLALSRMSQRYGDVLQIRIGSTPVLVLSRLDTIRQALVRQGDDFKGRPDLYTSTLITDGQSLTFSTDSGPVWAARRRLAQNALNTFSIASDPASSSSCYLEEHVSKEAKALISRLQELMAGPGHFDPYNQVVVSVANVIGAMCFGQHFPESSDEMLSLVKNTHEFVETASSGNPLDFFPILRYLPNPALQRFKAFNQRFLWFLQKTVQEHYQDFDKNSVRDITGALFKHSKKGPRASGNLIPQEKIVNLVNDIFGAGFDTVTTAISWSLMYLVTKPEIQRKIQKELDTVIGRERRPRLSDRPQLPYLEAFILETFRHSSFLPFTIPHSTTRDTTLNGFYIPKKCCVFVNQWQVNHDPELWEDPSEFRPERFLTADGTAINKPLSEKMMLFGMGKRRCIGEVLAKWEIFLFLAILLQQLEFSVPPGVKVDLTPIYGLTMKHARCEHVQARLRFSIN
# Cytochrome P450 3A4 = Cytochrome P450 3A4 (Homo sapiens, UniProt P08684);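 also: CYP3A4 tested as one member of a cytochrome P450 panel screen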
# Chain of Cytochrome P450 3A4 (P08684 whole entry): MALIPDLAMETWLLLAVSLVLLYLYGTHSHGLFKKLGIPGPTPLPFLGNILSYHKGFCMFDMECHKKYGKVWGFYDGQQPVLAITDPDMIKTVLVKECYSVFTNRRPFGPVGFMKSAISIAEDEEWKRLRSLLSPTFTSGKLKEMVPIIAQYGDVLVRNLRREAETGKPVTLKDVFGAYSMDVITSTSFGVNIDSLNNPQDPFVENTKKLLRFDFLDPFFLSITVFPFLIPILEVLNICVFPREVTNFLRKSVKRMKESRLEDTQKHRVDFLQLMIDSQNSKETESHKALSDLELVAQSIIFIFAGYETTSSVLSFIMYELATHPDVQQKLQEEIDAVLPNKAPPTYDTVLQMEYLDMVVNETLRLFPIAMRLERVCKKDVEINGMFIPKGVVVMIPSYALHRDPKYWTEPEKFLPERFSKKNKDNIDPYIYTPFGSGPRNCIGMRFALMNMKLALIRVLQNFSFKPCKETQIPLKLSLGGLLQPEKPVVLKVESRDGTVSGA
# cells [9] = format: functional, cell-based
# cells [10] = format: functional, cell-based; remark: listed apart in the source
# Nonstructural protein 1 = Nonstructural protein 1 (Influenza A virus, UniProt Q194T2); format: functional, Influenza A virus (A/California/07/2009(H1N1))
# Chain of Nonstructural protein 1 (Q194T2 whole entry, the tested form may be a part): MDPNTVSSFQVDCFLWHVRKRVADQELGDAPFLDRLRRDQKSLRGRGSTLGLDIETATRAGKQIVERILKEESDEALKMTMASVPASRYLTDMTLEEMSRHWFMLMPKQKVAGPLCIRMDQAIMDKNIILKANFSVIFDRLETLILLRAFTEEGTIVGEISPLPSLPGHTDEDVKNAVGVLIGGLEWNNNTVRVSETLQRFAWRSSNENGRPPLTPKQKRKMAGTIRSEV
# [11] = biological target: Sentrin-specific protease 1 (Homo sapiens, UniProt Q9P0U3); experiment: Dose response confirmation of small molecule inhibitors of the catalytic domain of the SUMO protease, SENP1 in a FRET assay.; format: functional; conditions: read-out: IC50_Mean
# Chain of Sentrin-specific protease 1 (Q9P0U3 whole entry, the tested form may be a part): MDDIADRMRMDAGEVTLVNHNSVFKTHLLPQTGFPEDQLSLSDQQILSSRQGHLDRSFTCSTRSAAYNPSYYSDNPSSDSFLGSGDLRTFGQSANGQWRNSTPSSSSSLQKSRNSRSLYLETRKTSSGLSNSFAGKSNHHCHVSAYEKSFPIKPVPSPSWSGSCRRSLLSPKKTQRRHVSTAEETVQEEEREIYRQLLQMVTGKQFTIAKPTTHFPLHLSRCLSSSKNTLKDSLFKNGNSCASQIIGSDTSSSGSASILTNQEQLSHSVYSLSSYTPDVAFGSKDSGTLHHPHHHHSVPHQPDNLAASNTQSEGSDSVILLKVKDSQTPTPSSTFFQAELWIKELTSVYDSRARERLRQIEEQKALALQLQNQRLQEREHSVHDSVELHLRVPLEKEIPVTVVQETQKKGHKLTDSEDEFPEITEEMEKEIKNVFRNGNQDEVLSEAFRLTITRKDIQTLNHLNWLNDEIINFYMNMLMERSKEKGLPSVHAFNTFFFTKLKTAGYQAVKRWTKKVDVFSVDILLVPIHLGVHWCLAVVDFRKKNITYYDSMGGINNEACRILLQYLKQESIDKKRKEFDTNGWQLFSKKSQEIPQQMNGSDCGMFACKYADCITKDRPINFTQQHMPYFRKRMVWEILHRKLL
# [12] = A Cell Based Secondary Assay To Explore Cytotoxicity of Compounds that Sensitize Mycobacterium Tuberculosis to Beta-Lactam Antibiotics.; format: functional
# Vero = experiment: cells; format: functional; conditions: Chlorocebus sabaeus
# [13] = biological target: Nuclear receptor subfamily 5 group A member 2 (Homo sapiens, UniProt O00482); format: functional, cell-based;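 also: HEK293T cells transfected with LRH-1 and a StAR promoter luciferase reporter; potency for inhibitors that lower LRH-1 driven reporter light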
# Chain of Nuclear receptor subfamily 5 group A member 2 (O00482 whole entry): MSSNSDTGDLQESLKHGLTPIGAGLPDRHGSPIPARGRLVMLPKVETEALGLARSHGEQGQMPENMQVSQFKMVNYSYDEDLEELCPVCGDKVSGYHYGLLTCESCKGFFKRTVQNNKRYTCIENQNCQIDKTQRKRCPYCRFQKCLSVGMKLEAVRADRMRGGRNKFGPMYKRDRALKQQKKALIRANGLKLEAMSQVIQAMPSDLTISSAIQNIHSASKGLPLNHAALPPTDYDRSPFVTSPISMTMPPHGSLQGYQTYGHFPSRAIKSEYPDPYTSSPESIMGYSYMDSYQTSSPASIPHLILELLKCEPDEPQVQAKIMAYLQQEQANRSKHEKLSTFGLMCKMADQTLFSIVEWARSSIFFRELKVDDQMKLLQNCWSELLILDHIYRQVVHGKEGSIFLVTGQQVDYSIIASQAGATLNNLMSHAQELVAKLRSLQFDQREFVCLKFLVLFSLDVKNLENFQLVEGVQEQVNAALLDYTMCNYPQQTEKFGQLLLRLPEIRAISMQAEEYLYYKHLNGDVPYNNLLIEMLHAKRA
# Steroidogenic factor 1 = Steroidogenic factor 1 (Homo sapiens, UniProt Q13285); experiment: Counterscreen for inverse agonists of the liver receptor homolog-1 (LRH-1; NR5A2): Luminescence-based cell-based high throughput dose response assay to identify inverse agonists of the Steroidogenic Factor 1 Nuclear Receptor (SF1; NR5A1).; format: functional
# Chain of Steroidogenic factor 1 (Q13285 whole entry): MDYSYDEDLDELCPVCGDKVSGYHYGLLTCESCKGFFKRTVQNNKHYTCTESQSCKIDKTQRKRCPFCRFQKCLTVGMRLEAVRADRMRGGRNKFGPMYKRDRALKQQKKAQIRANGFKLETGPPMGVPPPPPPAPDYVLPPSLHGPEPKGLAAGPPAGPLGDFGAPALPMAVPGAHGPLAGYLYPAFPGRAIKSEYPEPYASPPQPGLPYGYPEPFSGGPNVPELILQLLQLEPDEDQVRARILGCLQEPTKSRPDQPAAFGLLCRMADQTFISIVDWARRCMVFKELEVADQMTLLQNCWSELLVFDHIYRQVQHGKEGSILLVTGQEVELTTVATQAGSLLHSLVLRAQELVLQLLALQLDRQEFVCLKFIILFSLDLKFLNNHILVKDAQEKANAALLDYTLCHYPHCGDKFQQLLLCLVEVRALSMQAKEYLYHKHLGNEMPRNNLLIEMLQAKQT
# [14] = StAR promoter reporter inhibition counter-screen, dose response, counter-screen for LRH-1 inverse agonist project, cell-based, luminescence, luciferase reporter (AID 651969); format: functional
structure (smiles),measurement,setting,value
CCCn1c(CC)nc([N+](=O)[O-])c1S(=O)(=O)c1ccccc1,IC50,[1],0.996 µM (active)
same,CC50,[2],13.1 µM (active)
same,EC50,[3],5.85 µM (active)
same,EC50,[4],6.09 µM (active)
same,AC50,[5],> 380 µM (inactive)
same,EC50,Protein RecA,> 380 µM (inactive)
same,AC50,[6],24.8 µM (active)
same,AC50,[7],4.03 µM (active)
same,AC50,[8],7.65 µM (active)
same,AC50,Cytochrome P450 1A2,22.4 µM (inconclusive)
same,AC50,Cytochrome P450 3A4,25.1 µM (inconclusive)
CCOC(=O)/C(C#N)=C/C=C1\C=Cc2ccccc2N1CC,EC50,cells [9],> 350 µM (not active)
same,EC50,cells [10],> 350 µM (not active)
same,IC50,Nonstructural protein 1,> 100 µM (active)
same,IC50,[11],6.27 µM (active)
Cc1onc(NC(=O)c2ccc([N+](=O)[O-])o2)c1Br,CC50,[12],8.19 µM (active)
same,CC50,Vero,20.8 µM (active)
same,IC50,[13],1.33 µM (active)
same,IC50,Steroidogenic factor 1,0.369 µM (active)
same,IC50,[14],35.9 µM (inactive)
